The test deals with T1, BCL-2 (Homo sapiens, UniProt P10415).
T1 construct: purchased Cisbio 63ADK000CB01PEG
Description: HTRF BCL-2/BAK assay (Cisbio). Type of test: binding. The settings on record: recombinant human Tag1-BCL-2 2 nM, Tag2-BAK 10 nM. How it is done:
Then the pre-mixed anti-Tag1-Eu^3+ and anti-tag2-XL665 were added to the plate and further incubated at room temperature for another 2 hours. The signals ([…]) were read on Envision 2104 instrument. The IC50 for each compound was derived from fitting the signal of 665/615 nM to the increasing compound concentration.
Using the above assays, the following compounds were tested.

T1 sequence (P10415 whole entry): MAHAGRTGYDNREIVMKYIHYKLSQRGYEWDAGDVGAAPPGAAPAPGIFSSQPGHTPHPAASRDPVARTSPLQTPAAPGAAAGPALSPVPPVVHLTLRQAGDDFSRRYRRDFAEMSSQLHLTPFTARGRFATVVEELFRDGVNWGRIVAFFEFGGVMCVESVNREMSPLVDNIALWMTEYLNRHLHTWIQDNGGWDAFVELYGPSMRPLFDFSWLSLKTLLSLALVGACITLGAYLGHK

In the case of `O=C(NS(=O)(=O)c1cccc([N+](=O)[O-])c1)c1ccc(N2CCN(C3CCCc4ccccc43)CC2)cc1Oc1cnc2[nH]ccc2c1` (stereo not shown) [Compound 1, 2-((1H-pyrrolo[2,3-b]pyridin-5-yl)oxy)-N-((3-nitrophenyl)sulfonyl)-4-(4-(1,2,3,4-tetrahydronaphthalen-1-yl)piperazin-1-yl)benzamide], the IC50 was 0.2 to 2 µM.
The figure for `O=C(NS(=O)(=O)c1cccc([N+](=O)[O-])c1)c1ccc(N2CCN(C3CCc4ccccc43)CC2)cc1Oc1cnc2[nH]ccc2c1` (stereo not shown) [Compound 3, 2-((1H-pyrrolo[2,3-b]pyridin-5-yl)oxy)-4-(4-(2,3-dihydro-1H-inden-1-yl)piperazin-1-yl)-N-((3-nitrophenyl)sulfonyl)benzamide] is 0.2 to 2 µM.
Take `O=C(NS(=O)(=O)c1cccc([N+](=O)[O-])c1)c1ccc(N2CCN(C3CCCc4cccc(-c5ccccc5)c43)CC2)cc1Oc1cnc2[nH]ccc2c1` (stereo not shown) [Compound 8, 2-((1H-pyrrolo[2,3-b]pyridin-5-yl)oxy)-N-((3-nitrophenyl)sulfonyl)-4-(4-(8-phenyl-1,2,3,4-tetrahydronaphthalen-1-yl)piperazin-1-yl)benzamide]: the IC50 lay in the range of 0.2 to 2 µM.
With `O=C(NS(=O)(=O)c1cccc([N+](=O)[O-])c1)c1ccc(N2CCN(C3CCOc4ccccc43)CC2)cc1Oc1cnc2[nH]ccc2c1` (stereo not shown) [Compound 9, 2-((1H-pyrrolo[2,3-b]pyridin-5-yl)oxy)-4-(4-(chroman-4-yl)piperazin-1-yl)-N-((3-nitrophenyl)sulfonyl)benzamide], the IC50 was 0.2 to 2 µM.
With `O=C(NS(=O)(=O)c1cccc([N+](=O)[O-])c1)c1ccc(N2CCN(C3CCCc4cccc(-c5ccsc5)c43)CC2)cc1Oc1cnc2[nH]ccc2c1` (stereo not shown) [Compound 11, 2-((1H-pyrrolo[2,3-b]pyridin-5-yl)oxy)-N-((3-nitrophenyl)sulfonyl)-4-(4-(8-(thiophen-3-yl)-1,2,3,4-tetrahydronaphthalen-1-yl)piperazin-1-yl)benzamide], the IC50 lay within 0.2 to 2 µM.
`O=C(NS(=O)(=O)c1cccc([N+](=O)[O-])c1)c1ccc(N2CCN(C3CCCc4cccc(-c5cccc(Cl)c5)c43)CC2)cc1Oc1cnc2[nH]ccc2c1` (stereo not shown) [Compound 14, 2-((1H-pyrrolo[2,3-b]pyridin-5-yl)oxy)-4-(4-(8-(3-chlorophenyl)-1,2,3,4-tetrahydronaphthalen-1-yl)piperazin-1-yl)-N-((3-nitrophenyl)sulfonyl)benzamide]: the IC50 is 0.2 to 2 µM.
Turning to `O=C(NS(=O)(=O)c1cccc([N+](=O)[O-])c1)c1ccc(N2CCN(C3CCCc4cccc(-c5cccs5)c43)CC2)cc1Oc1cnc2[nH]ccc2c1` (stereo not shown) [Compound 15, 2-((1H-pyrrolo[2,3-b]pyridin-5-yl)oxy)-N-((3-nitrophenyl)sulfonyl)-4-(4-(8-(thiophen-2-yl)-1,2,3,4-tetrahydronaphthalen-1-yl)piperazin-1-yl)benzamide], the IC50 was in the range of 0.2 to 2 µM.

A word on the IC50: it is the point on the concentration scale where inhibition reaches its midpoint.
